{
  "source": "patent US11377441B2",
  "about": "“Covalent inhibitors of KRAS” (Araxes Pharma LLC, priority 2017, dated 2022)",
  "data": [
    {"molecular_target": "T1, KRAS G12C 1-169, his-tagged protein, GDP-loaded (Homo sapiens, UniProt P01116, G12C)", "T1 construct": "KRAS G12C 1-169, his-tagged protein, GDP-loaded", "assay": "Biochemical assay: covalent modification of KRAS G12C measured by mass spectrometry (RapidFire/TOF or Q-Exactive)", "assay_type": "binding", "conditions": "covalent binding to (modification of) KRAS G12C after a ten minute incubation period", "summary_of_the_method": "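Intact-mass readout (TOF or Q-Exactive, charge-envelope deconvolution) gives percent covalent adduct from modified and unmodified species. Compound at 10, 30 or 100 μM was incubated at room temperature for 10 min to 24 h with 2 μM or 0.5 μM GDP-bound KRAS G12C 1-169 in Hepes/NaCl/MgCl2 buffer, then acid-quenched.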", "values": [
      {"smiles": "C=CC(=O)N1C[C@H](C)N(c2nc(OCCN3CCC(F)CC3)nc3c(F)c(-c4c(C)ccc5[nH]nc(C)c45)c(Cl)cc23)C[C@H]1C", "note": "[Compound 163, 1-((2R,5S)-4-((S)-6-chloro-7-(3,5-dimethyl-1H-indazol-4-yl)-8-fluoro-2-(2-(4-fluoropiperidin-1-yl)ethoxy)quinazolin-4-yl)-2,5-dimethylpiperazin-1-yl)prop-2-en-1-one]", "Binding %": "+ (+ indicates binding activity greater than 0% and up to 50%)"},
      {"smiles": "C=CC(=O)N1C[C@H](C)N(c2nc(OCCN3CCC(F)CC3)nc3c(F)c(-c4c(C)ccc5[nH]nc(C)c45)c(Cl)cc23)C[C@H]1C", "note": "[Compound 164, 1-((2R,5S)-4-((R)-6-chloro-7-(3,5-dimethyl-1H-indazol-4-yl)-8-fluoro-2-(2-(4-fluoropiperidin-1-yl)ethoxy)quinazolin-4-yl)-2,5-dimethylpiperazin-1-yl)prop-2-en-1-one]", "Binding %": "+++ (+++ indicates binding activity greater than 80%)"},
      {"smiles": "C=CC(=O)N1CCN(c2nc(N3CC(N(C)C)C3)nc3c(F)c(-c4c(C)ccc5[nH]nc(N)c45)c(Cl)cc23)C[C@H]1C", "note": "[Compound 165, 1-((2R)-4-(7-(3-amino-5-methyl-1H-indazol-4-yl)-6-chloro-2-(3-(dimethylamino)azetidin-1-yl)-8-fluoroquinazolin-4-yl)-2-methylpiperazin-1-yl)prop-2-en-1-one]", "Binding %": "+++ (+++ indicates binding activity greater than 80%)"},
      {"smiles": "C=CC(=O)N1C[C@H](C)N(c2nc(N3CC(N(C)C)C3)nc3c(F)c(-c4c(C)ccc5cnn(C)c45)c(C(F)(F)F)cc23)C[C@H]1C", "note": "[Compound 171, 1-((2R,5S)-4-(7-(1,6-dimethyl-1H-indazol-7-yl)-2-(3-(dimethylamino)azetidin-1-yl)-8-fluoro-6-(trifluoromethyl)quina-zolin-4-yl)-2,5-dimethylpiperazin-1-yl)prop-2-en-1-one]", "Binding %": "+++ (+++ indicates binding activity greater than 80%)"},
      {"smiles": "C=CC(=O)N1C[C@H](C)N(c2nc(OC[C@H]3CCCN3C)nc3c(F)c(-c4c(C)ccc5[nH]nc(C6CC6)c45)c(Cl)cc23)C[C@H]1C", "note": "[Compound 172, 1-((2R,5S)-4-(6-chloro-7-(3-cyclopropyl-5-methyl-1H-indazol-4-yl)-8-fluoro-2-(((R)-1-methylpyrroldiin-2-yl)methoxy)quinazolin-4-yl)-2,5-dimethylpiperazin-1-yl)prop-2-en-1-one]", "Binding %": "+++ (+++ indicates binding activity greater than 80%)"},
      {"smiles": "C=CC(=O)N1C[C@H](C)N(c2nc(N3CC(N(C)C)C3)nc3c(F)c(-c4c(C)ccc5cnn(C6CC6)c45)c(C(F)(F)F)cc23)C[C@H]1C", "note": "[Compound 173, 1-((2R,5S)-4-(7-(1-cyclopropyl-6-methyl-1H-indazol-7-yl)-2-(3-(dimethylamino)azetidin-1-yl)-8-fluoro-6-(trifluoromethyl)quina-zolin-4-yl)-2,5-dimethylpiperazin-1-yl)prop-2-en-1-one]", "Binding %": "+++ (+++ indicates binding activity greater than 80%)"},
      {"smiles": "C=CC(=O)N1C[C@H](C)N(c2nc(OC[C@@H]3CCN(C)C3)nc3c(F)c(-c4c(C)ccc5cnn(C)c45)c(Cl)cc23)C[C@H]1C", "note": "[Compound 174, 1-((2R,5S)-4-(6-chloro-7-(1,6-dimethyl-1H-indazol-7-yl)-8-fluoro-2-(((R)-1-methylpyrrolidin-3-yl)methoxy)quinazolin-4-yl)-2,5-dimethylpiperazin-1-yl)prop-2-en-1-one]", "Binding %": "+++ (+++ indicates binding activity greater than 80%)"},
      {"smiles": "C=CC(=O)N1C[C@H](C)N(c2nc(OC[C@@H]3CCN(C)C3)nc3c(F)c(-c4c(C)ccc5[nH]nc(C)c45)c(Cl)cc23)C[C@H]1C", "note": "[Compound 175, 1-((2R,5S)-4-(6-chloro-7-(3,5-dimethyl-1H-indazol-4-yl)-8-fluoro-2-(((R)-1-methylpyrrolidin-3-yl)methoxy)quinazolin-4-yl)-2,5-dimethylpiperazin-1-yl)prop-2-en-1-one]", "Binding %": "++ (++ indicates binding activity from 50 to 80%)"},
      {"smiles": "C=CC(=O)N1C[C@H](C)N(c2nc(OC[C@@H]3CN(C)CCO3)nc3c(F)c(-c4c(C)ccc5cnn(C)c45)c(Cl)cc23)C[C@H]1C", "note": "[Compound 176, 1-((2R,5S)-4-(6-chloro-7-(1,6-dimethyl-1H-indazol-7-yl)-8-fluoro-2-(((S)-4-methylmorpholin-2-yl)methoxy)quinazolin-4-yl)-2,5-dimethylpiperazin-1-yl)prop-2-en-1-one]", "Binding %": "+++ (+++ indicates binding activity greater than 80%)"},
      {"smiles": "C=CC(=O)N1C[C@H](C)N(c2nc(OC[C@@H]3CCN(C)C3)nc3c(F)c(-c4c(C)ccc5[nH]nc(C6CC6)c45)c(Cl)cc23)C[C@H]1C", "note": "[Compound 177, 1-((2R,5S)-4-(6-chloro-7-(3-cyclopropyl-5-methyl-1H-indazol-4-yl)-8-fluoro-2-(((R)-1-methylpyrrolidin-3-yl)methoxy)quinazolin-4-yl)-2,5-dimethylpiperazin-1-yl)prop-2-en-1-one]", "Binding %": "+++ (+++ indicates binding activity greater than 80%)"},
      {"smiles": "C=CC(=O)N1C[C@H](C)N(c2nc(OC[C@H]3COCCN3C)nc3c(F)c(-c4c(C)ccc5cnn(C)c45)c(Cl)cc23)C[C@H]1C", "note": "[Compound 178, 1-((2R,5S)-4-(6-chloro-7-(1,6-dimethyl-1H-indazol-7-yl)-8-fluoro-2-(((R)-4-methylmorpholin-3-yl)methoxy)quinazolin-4-yl)-2,5-dimethylpiperazin-1-yl)prop-2-en-1-one]", "Binding %": "++ (++ indicates binding activity from 50 to 80%)"},
      {"smiles": "C=CC(=O)N1C[C@H](C)N(c2nc(OC[C@H]3CCCN3C)nc3c(F)c(-c4c(C)ccc5[nH]nc(C)c45)c(Cl)cc23)C[C@H]1C", "note": "[Compound 179, 1-((2R,5S)-4-(6-chloro-7-(3,5-dimethyl-1H-indazol-4-yl)-8-fluoro-2-(((R)-1-methylpyrrolidin-2-yl)methoxy)quinazolin-4-yl)-2,5-dimethyllpiperazin-1-yl)prop-2-en-1-one]", "Binding %": "+++ (+++ indicates binding activity greater than 80%)"},
      {"smiles": "C=CC(=O)N1C[C@H](C)N(c2nc(OC[C@H]3COCCN3C)nc3c(F)c(-c4c(C)ccc5[nH]nc(C6CC6)c45)c(Cl)cc23)C[C@H]1C", "note": "[Compound 180, 1-((2R,5S)-4-(6-chloro-7-(3-cyclopropyl-5-methyl-1H-indazol-4-yl)-8-fluoro-2-(((R)-4-methymorpholin-3-yl)methoxy)quinazolin-4-yl)-2,5-dimethylpiperazin-1-yl)prop-2-en-1-one]", "Binding %": "++ (++ indicates binding activity from 50 to 80%)"},
      {"smiles": "C=CC(=O)N1C[C@H](C)N(c2nc(OC[C@H]3COCCN3C)nc3c(F)c(-c4c(C)ccc5[nH]nc(C)c45)c(Cl)cc23)C[C@H]1C", "note": "[Compound 181, 1-((2R,5S)-4-(6-chloro-7-(3,5-dimethyl-1H-indazol-4-yl)-8-fluoro-2-(((R)-4-methylmorpholin-3-yl)methoxy)quinazolin-4-yl)-2,5-dimethylpiperazin-1-yl)prop-2-en-1-one]", "Binding %": "+ (+ indicates binding activity greater than 0% and up to 50%)"},
      {"smiles": "C=CC(=O)N1C[C@H](C)N(c2nc(OC[C@@H]3COCCN3C)nc3c(F)c(-c4c(C)ccc5cnn(C)c45)c(Cl)cc23)C[C@H]1C", "note": "[Compound 182, 1-((2R,5S)-4-(6-chloro-7-(1,6-dimethyl-1H-indazol-7-yl)-8-fluoro-2-(((S)-4-methylmorpholin-3-yl)methoxy)quinazolin-4-yl)-2,5-dimethylpiperazin-1-yl)prop-2-en-1-one]", "Binding %": "++ (++ indicates binding activity from 50 to 80%)"},
      {"smiles": "C=CC(=O)N1C[C@H](C)N(c2nc(OC[C@@H]3COCCN3C)nc3c(F)c(-c4c(C)ccc5[nH]nc(C6CC6)c45)c(Cl)cc23)C[C@H]1C", "note": "[Compound 183, 1-((2R,5S)-4-(6-chloro-7-(3-cyclopropyl-5-methyl-1H-indazol-4-yl)-8-fluoro-2-(((S)-4-methylmorpholin-3-yl)methoxy)quinazolin-4-yl)-2,5-dimethylpiperazin-1-yl)prop-2-en-1-one]", "Binding %": "+++ (+++ indicates binding activity greater than 80%)"},
      {"smiles": "C=CC(=O)N1C[C@H](C)N(c2nc(OC[C@@H]3COCCN3C)nc3c(F)c(-c4c(C)ccc5[nH]nc(C)c45)c(Cl)cc23)C[C@H]1C", "note": "[Compound 184, 1-((2R,5S)-4-(6-chloro-7-(3,5-dimethyl-1H-indazol-4-yl)-8-fluoro-2-(((S)-4-methylmorpholin-3-yl)methoxy)quinazolin-4-yl)-2,5-dimethylpiperazin-1-yl)prop-2-en-1-one]", "Binding %": "+++ (+++ indicates binding activity greater than 80%)"},
      {"smiles": "C=CC(=O)N1C[C@H](C)N(c2nc(OC[C@@H]3CCCN3C)nc3c(F)c(-c4c(C)ccc5[nH]nc(C)c45)c(Cl)cc23)C[C@H]1C", "note": "[Compound 185, 1-((2R,5S)-4-(6-chloro-7-(3,5-dimethyl-1H-indazol-4-yl)-8-fluoro-2-(((S)-1-methylpyrrolidin-2-yl)methoxy)quinazolin-4-yl)-2,5-dimethylpiperazin-1-yl)prop-2-en-1-one]", "Binding %": "+++ (+++ indicates binding activity greater than 80%)"},
      {"smiles": "C=CC(=O)N1C[C@H](C)N(c2nc(OC[C@H]3CN(C)CCO3)nc3c(F)c(-c4c(C)ccc5cnn(C)c45)c(Cl)cc23)C[C@H]1C", "note": "[Compound 186, 1-((2R,5S)-4-(6-chloro-7-(1,6-dimethyl-1H-indazol-7-yl)-8-fluoro-2-(((R)-4-methylmorpholin-2-yl)methoxy)quinazolin-4-yl)-2,5-dimethylpiperazin-1-yl)prop-2-en-1-one]", "Binding %": "+++ (+++ indicates binding activity greater than 80%)"},
      {"smiles": "C=CC(=O)N1C[C@H](C)N(c2nc(OC[C@@H]3CN(C)CCO3)nc3c(F)c(-c4c(C)ccc5[nH]nc(C6CC6)c45)c(Cl)cc23)C[C@H]1C", "note": "[Compound 187, 1-((2R,5S)-4-(6-chloro-7-(3-cyclopropyl-5-methyl-1H-indazol-4-yl)-8-fluoro-2-(((S)-4-methylmorpholin-2-yl)methoxy)quinazolin-4-yl)-2,5-dimethylpiperazin-1-yl)prop-2-en-1-one]", "Binding %": "+++ (+++ indicates binding activity greater than 80%)"}
    ]}
  ]
}
